Data from ChEMBL document CHEMBL1136686 (Bioorg Med Chem Lett, 2003).

Experiments:
Progesterone receptor [1] = target: T1, Progesterone receptor (Homo sapiens, UniProt P06401); assay: Inhibition of [3H]P4 to progesterone receptor (PR) of human T47D breast carcinoma cells; assay type: cell-based
T1 sequence (P06401 whole entry): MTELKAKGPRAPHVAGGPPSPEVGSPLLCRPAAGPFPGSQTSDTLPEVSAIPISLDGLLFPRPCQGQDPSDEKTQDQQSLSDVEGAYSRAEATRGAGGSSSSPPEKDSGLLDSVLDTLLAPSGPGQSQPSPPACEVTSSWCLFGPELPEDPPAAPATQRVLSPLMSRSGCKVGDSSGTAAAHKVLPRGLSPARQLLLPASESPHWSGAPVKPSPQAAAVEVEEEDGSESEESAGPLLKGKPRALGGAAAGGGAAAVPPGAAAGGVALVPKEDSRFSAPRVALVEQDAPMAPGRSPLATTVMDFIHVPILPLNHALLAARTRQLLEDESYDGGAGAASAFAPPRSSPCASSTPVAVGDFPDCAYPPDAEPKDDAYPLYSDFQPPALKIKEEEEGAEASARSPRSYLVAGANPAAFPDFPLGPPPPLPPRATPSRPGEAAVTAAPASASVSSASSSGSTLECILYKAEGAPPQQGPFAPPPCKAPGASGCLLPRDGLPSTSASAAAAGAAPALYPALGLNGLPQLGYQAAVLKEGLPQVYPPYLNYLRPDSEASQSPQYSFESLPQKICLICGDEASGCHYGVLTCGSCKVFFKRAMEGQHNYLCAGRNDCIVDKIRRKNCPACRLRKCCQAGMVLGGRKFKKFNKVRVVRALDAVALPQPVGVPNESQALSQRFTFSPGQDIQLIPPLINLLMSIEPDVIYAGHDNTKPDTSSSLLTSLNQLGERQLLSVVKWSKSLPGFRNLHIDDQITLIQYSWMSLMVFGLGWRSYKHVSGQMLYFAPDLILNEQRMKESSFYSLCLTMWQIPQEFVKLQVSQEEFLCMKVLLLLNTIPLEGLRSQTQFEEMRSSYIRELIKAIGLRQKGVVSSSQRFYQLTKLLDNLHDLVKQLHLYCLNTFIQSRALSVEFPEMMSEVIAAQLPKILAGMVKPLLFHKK

Androgen receptor [2] = target: T2, Androgen receptor (Mus musculus, UniProt P19091); assay: Inhibitory activity against Androgen receptor
T2 sequence (P19091 whole entry): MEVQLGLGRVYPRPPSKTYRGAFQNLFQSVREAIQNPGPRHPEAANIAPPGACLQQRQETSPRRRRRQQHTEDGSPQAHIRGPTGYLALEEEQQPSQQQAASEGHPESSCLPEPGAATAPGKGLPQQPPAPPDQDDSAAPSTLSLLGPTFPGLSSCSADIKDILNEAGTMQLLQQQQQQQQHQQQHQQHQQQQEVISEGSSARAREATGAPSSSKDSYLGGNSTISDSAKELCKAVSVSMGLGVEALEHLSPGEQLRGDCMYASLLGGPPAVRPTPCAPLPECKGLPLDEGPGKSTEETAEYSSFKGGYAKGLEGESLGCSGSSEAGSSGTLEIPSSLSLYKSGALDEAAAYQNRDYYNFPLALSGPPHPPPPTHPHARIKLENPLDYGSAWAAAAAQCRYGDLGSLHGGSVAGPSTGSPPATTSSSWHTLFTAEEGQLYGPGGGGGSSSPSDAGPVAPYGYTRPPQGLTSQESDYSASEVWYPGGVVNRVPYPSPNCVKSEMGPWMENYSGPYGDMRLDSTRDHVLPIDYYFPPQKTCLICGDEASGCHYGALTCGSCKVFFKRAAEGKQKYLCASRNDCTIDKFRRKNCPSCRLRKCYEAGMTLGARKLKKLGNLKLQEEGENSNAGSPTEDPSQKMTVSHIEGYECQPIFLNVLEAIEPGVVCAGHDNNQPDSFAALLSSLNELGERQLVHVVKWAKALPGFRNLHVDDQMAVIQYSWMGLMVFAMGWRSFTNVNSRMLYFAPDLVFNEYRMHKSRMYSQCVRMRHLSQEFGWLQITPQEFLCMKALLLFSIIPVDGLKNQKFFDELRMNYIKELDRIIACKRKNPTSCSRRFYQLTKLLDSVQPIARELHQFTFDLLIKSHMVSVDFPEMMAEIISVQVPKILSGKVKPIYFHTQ

Glucocorticoid receptor [3] = target: T3, Glucocorticoid receptor (Homo sapiens, UniProt P04150); assay: Effective concentration against GR (glucocorticoid receptor)
T3 sequence (P04150 whole entry): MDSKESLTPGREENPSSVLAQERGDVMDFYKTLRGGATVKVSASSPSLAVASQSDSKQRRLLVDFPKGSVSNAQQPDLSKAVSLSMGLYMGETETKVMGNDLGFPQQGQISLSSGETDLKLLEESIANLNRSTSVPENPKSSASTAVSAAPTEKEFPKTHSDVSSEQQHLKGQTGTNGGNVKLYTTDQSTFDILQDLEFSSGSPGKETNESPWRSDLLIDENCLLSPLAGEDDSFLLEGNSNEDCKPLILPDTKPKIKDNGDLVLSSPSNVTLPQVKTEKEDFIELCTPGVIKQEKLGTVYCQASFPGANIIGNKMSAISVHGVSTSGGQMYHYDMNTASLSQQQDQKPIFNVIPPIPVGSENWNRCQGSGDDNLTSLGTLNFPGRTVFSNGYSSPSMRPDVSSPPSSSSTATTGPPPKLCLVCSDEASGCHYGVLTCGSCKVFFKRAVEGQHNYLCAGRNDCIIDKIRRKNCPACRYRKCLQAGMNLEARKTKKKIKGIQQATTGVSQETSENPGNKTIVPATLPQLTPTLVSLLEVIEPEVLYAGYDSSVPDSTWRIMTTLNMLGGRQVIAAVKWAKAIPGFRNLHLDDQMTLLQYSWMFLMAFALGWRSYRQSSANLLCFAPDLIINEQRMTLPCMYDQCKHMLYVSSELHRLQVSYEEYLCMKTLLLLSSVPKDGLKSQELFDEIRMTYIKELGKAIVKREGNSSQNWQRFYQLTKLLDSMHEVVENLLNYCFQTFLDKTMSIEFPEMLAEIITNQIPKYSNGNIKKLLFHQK

Progesterone receptor [4] = target: T1, Progesterone receptor; assay: Effective concentration against PR (progesterone receptor)
Progesterone receptor [5] = target: T1, Progesterone receptor; assay: Effective concentration on alkaline phosphatase activity in human T47D breast carcinoma cell line.; assay type: functional, cell-based
Androgen receptor [6] = target: T2, Androgen receptor; assay: Effective concentration against Androgen receptor
Glucocorticoid receptor [7] = target: T3, Glucocorticoid receptor; assay: Inhibitory activity against GR (glucocorticoid receptor)

IC50 (Progesterone receptor [1]): 3 nM
IC50 (Androgen receptor [2]): 379 nM
EC50 (Glucocorticoid receptor [3]): > 10 µM
EC50 (Progesterone receptor [4]): 0.38 nM
EC50 (Progesterone receptor [5]): 0.4 nM
EC50 (Androgen receptor [6]): > 10 µM
IC50 (Glucocorticoid receptor [7]): 1320 nM
Compound: CC1(C)OC(=S)Nc2ccc(-c3csc(C#N)c3)cc21
